{"source": "patent US7696408B2", "about": "“Method to enhance Agrobacterium-mediated transformation of plants” (Regents of the University of Minnesota, priority 1999, dated 2010)", "key": {"[1]": {"system": "soybean cot-node explants", "experiment": "De novo shoot production on explants at four weeks on shoot induction media", "type": "cell-based, Glycine max", "conditions": "for explants producing de novo shoots at four weeks: Experiment #1, Bert; for de novo shoot growth: Experiment #2, MN1301; for explants developing de novo shoots: Experiment #3, MN0901", "source_text": "The explants were removed from the chamber after 14 days and transferred to fresh shoot induction media containing herbicide selection. During the transfer, the hypocotyl was carefully removed from the developing shoot mass and imbedded into the media with the differentiating tissue flush with the media surface. The plates were placed back into the growth chamber for an additional 2 weeks. At the 4 week time point, explants without de novo shoot production were discarded. The cotyledons were then removed from the differentiating tissue by cutting at the base of the node and the callus trimmed before transferring into shoot elongation media containing MS salts (murashige and Skoog, 1962), MSIII iron stock, 3% sucrose, 3 mM MES, 0.8% agar, and filter sterilized B5 vitamins, 50 mg/l asparagine, 100 mg/l pyroglutamic acid, 1 mg/l zeatin riboside, 0.1 mg/l indole-acetic acid, 0.5 mg/l GA3, 100 mg/l cefotaxime, 500 mg/l ticarcillin, 1.3-5 mg/l PPT; pH 5.6). Also at this time, a percentage of the explants were sliced into about 10 sections and stained for both GUS positive sectors and GUS positive shoots. Every 2 weeks the explants were transferred into new shoot elongation media after removing dead plant tissue and the bottom of the explant cut to encourage shoot elongation of transformed shoots.\nFive levels of cysteine were tested: 0 mg/l, 100 mg/l, 200 mg/l, 300 mg/l, and 400 mg/l. Cysteine was incorporated into the solid co-culture media by preparing the media as described hereinabove and dissolving the L-cysteine into the filter sterilized components. For these three experiments, no cysteine was added into the liquid co-cultivation media. To reduce experimental error, explants were placed randomly on all five different treatments and all plates within a treatment were shuffled after completion of the experiment. After co-cultivation, the explants in each treatment were placed on shoot induction media with ½ the concentration of cysteine as in the co-cultivation media. The specific details for each experiment are as follows: • 1. Experiment #1 used the Minnesota genotype Bert and Agrobacterium strain AGL1 containing the BSF16 binary plasmid. A total of 276 explants were wounded and infected with Agrobacterium. After co-cultivation, 10 explants of each treatment were immersed into GUS stain and assayed for transient expression and the remaining explants were washed and transferred to shoot induction media containing 1.33 mg/l PPT for all four weeks. De novo shoots were produced on 74% of the treatments containing 0 mg/l cysteine, 57% on 100 mg/l, 63% on 200 mg/l, 70% on 300 mg/l, and 77% on 400 mg/l at four weeks. […] Experiment #2 used the Minnesota genotype MN1301 and Agrobacterium strain AGL1 containing the BSF16 binary plasmid. A total of 229 explants were dissected, cut, and inoculated. For each cysteine-treatment, half of the explants were incubated during co-cultivation at 21-22° C. and the other half at 25° C. Five explants of each cysteine/temperature treatment were sacrificed to GUS stain and the remaining transferred to fresh shoot induction media containing 1.33 mg/l PPT for 2 weeks. The herbicide level was raised to 3.33 mg/l PPT for the second 2 weeks on shoot induction media. Because of poor de novo shoot growth (35% on 0 mg/l cysteine, 22.8% on 100 mg/l, 32% on 200 mg/l, 42% on 300 mg/l, and 28% on 400 mg/l) and contamination, all explants were sacrificed to GUS stain at the 4 week time point. • 3. Experiment #3 used the Minnesota genotype MN0901 and Agrobacterium strain AGL1 containing the BSF16 binary plasmid. Seedlings were germinated as usual, however, one half of the plates were placed at 4° C. for 24 hours before inoculation. A total of 390 explants were wounded and inoculated. For each cysteine/seedling-temperature treatment, one half of the explants were incubated during co-cultivation at 21-22° C. and the other half at 25° C. […]"}, "fava bean explants": {"system": "fava bean explants", "experiment": "Enzymatic browning of fava bean explants", "type": "cell-based", "conditions": "cysteine (e.g., 400-1000 mg/l) in solid co-cultivation medium"}, "soybean": {"system": "soybean", "experiment": "Production of transgenic soybean plants", "design": "species or system Glycine max", "conditions": "cysteine 400-1000 mg/l"}, "[2]": {"system": "soybean cot-node explants", "experiment": "De novo shoot production on explants at four weeks on shoot induction media", "type": "cell-based, Glycine max", "conditions": "Experiment #4, Bert"}}, "data": [{"smiles": "N[C@@H](CS)C(=O)O", "note": "[L-cysteine]", "values": [{"measurement": "explants producing de novo shoots at four weeks", "setting": "[1]; 100 mg/l cysteine, control 74%", "value": 57, "unit": "%"}, {"measurement": "explants producing de novo shoots at four weeks", "setting": "[1]; 200 mg/l cysteine", "value": 63, "unit": "%"}, {"measurement": "explants producing de novo shoots at four weeks", "setting": "[1]; 300 mg/l cysteine", "value": 70, "unit": "%"}, {"measurement": "explants producing de novo shoots at four weeks", "setting": "[1]; 400 mg/l cysteine", "value": 77, "unit": "%"}, {"measurement": "de novo shoot growth", "setting": "[1]; 100 mg/l cysteine, control 35%", "value": 22.8, "unit": "%"}, {"measurement": "de novo shoot growth", "setting": "[1]; 200 mg/l cysteine", "value": 32, "unit": "%"}, {"measurement": "de novo shoot growth", "setting": "[1]; 300 mg/l cysteine", "value": 42, "unit": "%"}, {"measurement": "de novo shoot growth", "setting": "[1]; 400 mg/l cysteine", "value": 28, "unit": "%"}, {"measurement": "explants developing de novo shoots", "setting": "[1]; 100 mg/l cysteine, control 64%", "value": 53, "unit": "%"}, {"measurement": "explants developing de novo shoots", "setting": "[1]; 200 mg/l cysteine", "value": 54, "unit": "%"}, {"measurement": "explants developing de novo shoots", "setting": "[1]; 300 mg/l cysteine", "value": 53, "unit": "%"}, {"measurement": "explants developing de novo shoots", "setting": "[1]; 400 mg/l cysteine", "value": 61, "unit": "%"}, {"measurement": "enzymatic browning of fava bean explants", "setting": "fava bean explants", "value": "decreased"}, {"measurement": "increase in production of transgenic plants", "setting": "soybean", "value": 2, "unit": "fold"}, {"measurement": "explants that developed de novo shoots", "setting": "[2]; 0S,400L", "value": 75, "unit": "%"}, {"measurement": "explants that developed de novo shoots", "setting": "[2]; 400L,0S (mg/l cysteine liquid, solid), control 0L,0S 76%", "value": 47, "unit": "%"}, {"measurement": "explants that developed de novo shoots", "setting": "[2]; 400L,400S", "value": 68, "unit": "%"}]}]}
